Laboratory results reported in PubChem BioAssay AID256 (DTP/NCI, 2004).
Several values for one entry are separate records, joined by “and”; a condition that tells them apart may be missing. Equal entries are not always repeated. Toxic doses and inconclusive results are not listed. Rule for the calls: active = survival T/C of 150% or more; inactive = T/C below 125% in these data.

System: CD2F1 mice, L1210 leukemia ip, survival T/C
Assay: NCI In Vivo Anticancer Drug Screen. Data for tumor model L1210 Leukemia (intraperitoneal) in CD2F1 (CDF1) mice
Conditions: higher = longer survival
Procedure, shortened: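 In this screen, transplantable tumors were grown in mice given either the compound or its vehicle. Results were expressed as the treated measurement relative to the control measurement.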

[1] = endpoint: mean survival time, dose: 100.0 mg/kg/injection, schedule: Q01DX001 (ip), vehicle: saline with Tween-80
[2] = endpoint: mean survival time, dose: 200.0 mg/kg/injection, schedule: Q01DX001 (ip), vehicle: saline with Tween-80
[3] = endpoint: mean survival time, dose: 400.0 mg/kg/injection, schedule: Q01DX001 (ip), vehicle: saline with Tween-80
[4] = endpoint: mean survival time, dose: 100.0 mg/kg/injection, schedule: Q01DX009 (ip), vehicle: saline with Tween-80
[5] = endpoint: mean survival time, dose: 200.0 mg/kg/injection, schedule: Q01DX009 (ip), vehicle: saline with Tween-80
[6] = endpoint: mean survival time, dose: 400.0 mg/kg/injection, schedule: Q01DX009 (ip), vehicle: saline with Tween-80
[7] = endpoint: mean survival time, dose: 100.0 mg/kg/injection, schedule: Q04DX003 (ip), vehicle: saline with Tween-80
[8] = endpoint: mean survival time, dose: 200.0 mg/kg/injection, schedule: Q04DX003 (ip), vehicle: saline with Tween-80
[9] = endpoint: mean survival time, dose: 400.0 mg/kg/injection, schedule: Q04DX003 (ip), vehicle: saline with Tween-80
[10] = endpoint: mean survival time, dose: 100.0 mg/kg/injection, schedule: Q01DX001 (ip), vehicle: saline
[11] = endpoint: mean survival time, dose: 200.0 mg/kg/injection, schedule: Q01DX001 (ip), vehicle: saline
[12] = endpoint: mean survival time, dose: 400.0 mg/kg/injection, schedule: Q01DX001 (ip), vehicle: saline
[13] = endpoint: median survival time, dose: 12.5 mg/kg/injection, schedule: Q01DX009 (ip), vehicle: saline
[14] = endpoint: median survival time, dose: 50.0 mg/kg/injection, schedule: Q01DX009 (ip), vehicle: saline
[15] = endpoint: median survival time, dose: 100.0 mg/kg/injection, schedule: Q01DX009 (ip), vehicle: saline
[16] = endpoint: median survival time, dose: 200.0 mg/kg/injection, schedule: Q01DX009 (ip), vehicle: saline

Measured: T/C

O=C(Oc1ccccc1)C(O)CO (stereo not drawn)
inactive: [1] 104 % of control | [2] 101 % of control | [3] 97 % of control

NS(=O)(=O)c1cc2c(cc1Cl)NCNS2(=O)=O
inactive: [4] 98 % of control | [5] 98 % of control | [6] 96 % of control

CCC(C)C#N (stereo not drawn)
inactive: endpoint: mean survival time, dose: 5.0 mg/kg/injection, schedule: Q01DX009 (ip), vehicle: saline with Tween-80 98 % of control | endpoint: mean survival time, dose: 5.0 mg/kg/injection, schedule: Q04DX003 (ip), vehicle: saline 97 % of control | endpoint: mean survival time, dose: 10.0 mg/kg/injection, schedule: Q01DX009 (ip), vehicle: saline with Tween-80 100 % of control | endpoint: mean survival time, dose: 10.0 mg/kg/injection, schedule: Q04DX003 (ip), vehicle: saline 103 % of control | endpoint: mean survival time, dose: 20.0 mg/kg/injection, schedule: Q01DX009 (ip), vehicle: saline with Tween-80 94 % of control | endpoint: mean survival time, dose: 20.0 mg/kg/injection, schedule: Q04DX003 (ip), vehicle: saline 103 % of control

O=c1c2ccc(Cl)cc2[nH]c(=S)n1-c1ccc(Cl)cc1
inactive: [7] 104 % of control | [8] 93 % of control | [9] 102 % of control

O=C1O/C(=C\c2ccccc2)c2c(-c3ccccc3)ccc(-c3ccccc3)c21
inactive: [1] 95 % of control | [2] 95 % of control | [3] 95 % of control

O=CC(O)C(O)C(O)C(O)C(O)CO (stereo not drawn)
inactive: [10] 94 % of control | [11] 103 % of control | [12] 97 % of control

O=C1C2C(C(=O)N1c1ccc(OCc3ccccc3)cc1)C1c3ccccc3C2C2CCCCN21 (stereo not drawn)
inactive: endpoint: mean survival time, dose: 25.0 mg/kg/injection, schedule: Q01DX009 (ip), vehicle: water 100 % of control | endpoint: mean survival time, dose: 50.0 mg/kg/injection, schedule: Q01DX009 (ip), vehicle: water 86 % of control

Nc1nc(-c2cccc([N+](=O)[O-])c2)c(N=Nc2ccccc2)s1
inactive: [1] 95 % of control | [2] 100 % of control

S=C(SN1CCCCC1)N1CCCCC1
inactive: endpoint: mean survival time, dose: 50.0 mg/kg/injection, schedule: Q04DX003 (ip), vehicle: other 96 % of control | endpoint: mean survival time, dose: 100.0 mg/kg/injection, schedule: Q04DX003 (ip), vehicle: other 96 % of control | endpoint: mean survival time, dose: 200.0 mg/kg/injection, schedule: Q04DX003 (ip), vehicle: other 91 % of control

CC[C@@]1(OC(=O)CCC(=O)O)C(=O)OCc2c1cc1n(c2=O)Cc2cc3ccccc3nc2-1
inactive: endpoint: median survival time, dose: 5.86 mg/kg/injection, schedule: Q04DX002 (ip), vehicle: water 118 % of control | endpoint: median survival time, dose: 11.73 mg/kg/injection, schedule: Q04DX002 (ip), vehicle: water 120 % of control
active: endpoint: median survival time, dose: 8.79 mg/kg/injection, schedule: Q04HX004 (iv), vehicle: water 154 % of control | endpoint: median survival time, dose: 17.59 mg/kg/injection, schedule: Q04HX004 (iv), vehicle: water 167 % of control and 180 % of control | endpoint: median survival time, dose: 35.18 mg/kg/injection, schedule: Q04HX004 (iv), vehicle: water 197 % of control and 228 % of control | endpoint: median survival time, dose: 46.9 mg/kg/injection, schedule: Q04DX002 (ip), vehicle: water 192 % of control and 200 % of control | endpoint: median survival time, dose: 93.8 mg/kg/injection, schedule: Q04DX002 (ip), vehicle: water 231 % of control

CC(=O)NCc1ccc2c(c1)OCO2
inactive: [1] 98 % of control | [2] 111 % of control | [3] 106 % of control

O=C(/C=C/c1ccccc1)Cc1ccccc1
inactive: [4] 93 % of control | [7] 92 % of control | [5] 98 % of control | [8] 93 % of control | [6] 88 % of control | [9] 93 % of control

C[N+]1(O)C2CCC1CC(O)C2 (stereo not drawn)
inactive: endpoint: mean survival time, dose: 100.0 mg/kg/injection, schedule: Q01DX001 (ip), vehicle: Klucel (hydroxypropylcellulose) (HPC) 97 % of control | endpoint: mean survival time, dose: 200.0 mg/kg/injection, schedule: Q01DX001 (ip), vehicle: Klucel (hydroxypropylcellulose) (HPC) 104 % of control | endpoint: mean survival time, dose: 400.0 mg/kg/injection, schedule: Q01DX001 (ip), vehicle: Klucel (hydroxypropylcellulose) (HPC) 97 % of control

N#CC(/C=C/c1ccccc1)Nc1ccccc1C(N)=O (stereo not drawn)
inactive: endpoint: mean survival time, dose: 100.0 mg/kg/injection, schedule: Q04DX003 (ip), vehicle: saline sonified 97 % of control | endpoint: mean survival time, dose: 200.0 mg/kg/injection, schedule: Q04DX003 (ip), vehicle: saline sonified 97 % of control | endpoint: mean survival time, dose: 400.0 mg/kg/injection, schedule: Q04DX003 (ip), vehicle: saline sonified 97 % of control

NC(=S)N/N=C1\c2cc(Cl)ccc2-c2c1cc(Cl)cc2[N+](=O)[O-]
inactive: endpoint: mean survival time, dose: 50.0 mg/kg/injection, schedule: Q01DX001 (ip), vehicle: carboxymethylcellulose (CMC) 102 % of control | endpoint: mean survival time, dose: 100.0 mg/kg/injection, schedule: Q01DX001 (ip), vehicle: carboxymethylcellulose (CMC) 102 % of control

O=C1C=CC(=O)N1c1ccc(Cl)cc1Br
inactive: endpoint: mean survival time, dose: 5.0 mg/kg/injection, schedule: Q04DX003 (ip), vehicle: saline with Tween-80 95 % of control | endpoint: mean survival time, dose: 10.0 mg/kg/injection, schedule: Q04DX003 (ip), vehicle: saline with Tween-80 89 % of control | endpoint: mean survival time, dose: 20.0 mg/kg/injection, schedule: Q04DX003 (ip), vehicle: saline with Tween-80 92 % of control

O=C(O)CCCCCSc1nn(C2OC(CO)C(O)C2O)c(=O)[nH]c1=O (stereo not drawn)
inactive: endpoint: mean survival time, dose: 12.5 mg/kg/injection, schedule: Q01DX005 (ip), vehicle: distilled water + Tween-80 112 % of control | endpoint: mean survival time, dose: 25.0 mg/kg/injection, schedule: Q01DX005 (ip), vehicle: distilled water + Tween-80 104 % of control | endpoint: mean survival time, dose: 50.0 mg/kg/injection, schedule: Q01DX005 (ip), vehicle: distilled water + Tween-80 104 % of control | endpoint: mean survival time, dose: 100.0 mg/kg/injection, schedule: Q01DX005 (ip), vehicle: distilled water + Tween-80 104 % of control | endpoint: mean survival time, dose: 200.0 mg/kg/injection, schedule: Q01DX005 (ip), vehicle: distilled water + Tween-80 104 % of control

C=CCOC(=O)CCCCCCCCC(=O)OCC=C
inactive: [4] 97 % of control | [7] 96 % of control | [5] 95 % of control | [8] 94 % of control

O=C1OCc2ccc3ccccc3c21
inactive: endpoint: mean survival time, dose: 50.0 mg/kg/injection, schedule: Q01DX001 (ip), vehicle: saline 97 % of control | [10] 89 % of control | [11] 93 % of control | [12] 93 % of control

O=C1N(CC2CO2)CCN1CC1CO1 (stereo not drawn)
active: [14] 157 % of control | [15] 174 % of control | [16] 277 % of control
inactive: [13] 123 % of control | endpoint: median survival time, dose: 400.0 mg/kg/injection, schedule: Q01DX009 (ip), vehicle: saline 86 % of control

C[N+](C)(C)CCC[n+]1ccc(CCn2ccc3ccccc32)cc1
inactive: [10] 124 % of control

CC(=O)NC(C)C(=O)NC1C(C)OC(=O)C2=C(O)CC(O)C(O)C21 (stereo not drawn)
inactive: [7] 92 % of control | [8] 100 % of control | [9] 97 % of control

NC(=O)c1n[nH]c(C2CC(O)C(CO)O2)n1 (stereo not drawn)
inactive: endpoint: mean survival time, dose: 12.5 mg/kg/injection, schedule: Q01DX005 (ip), vehicle: water 96 % of control | endpoint: mean survival time, dose: 25.0 mg/kg/injection, schedule: Q01DX005 (ip), vehicle: water 91 % of control | endpoint: mean survival time, dose: 50.0 mg/kg/injection, schedule: Q01DX005 (ip), vehicle: water 92 % of control | endpoint: mean survival time, dose: 100.0 mg/kg/injection, schedule: Q01DX005 (ip), vehicle: water 96 % of control | endpoint: mean survival time, dose: 200.0 mg/kg/injection, schedule: Q01DX005 (ip), vehicle: water 94 % of control

O=C1OC(=O)[C@H]2[C@@H]1[C@H]1C=C[C@@H]2OC1=O
inactive: [13] 98 % of control | endpoint: median survival time, dose: 25.0 mg/kg/injection, schedule: Q01DX009 (ip), vehicle: saline 104 % of control | [14] 104 % of control | [15] 104 % of control | [16] 96 % of control

C=Cc1cnc([N+](=O)[O-])n1C
inactive: endpoint: mean survival time, dose: 12.5 mg/kg/injection, schedule: Q01DX009 (ip), vehicle: Klucel (hydroxypropylcellulose) (HPC) 103 % of control | endpoint: mean survival time, dose: 25.0 mg/kg/injection, schedule: Q01DX009 (ip), vehicle: Klucel (hydroxypropylcellulose) (HPC) 101 % of control | endpoint: mean survival time, dose: 50.0 mg/kg/injection, schedule: Q01DX009 (ip), vehicle: Klucel (hydroxypropylcellulose) (HPC) 101 % of control | endpoint: mean survival time, dose: 100.0 mg/kg/injection, schedule: Q01DX009 (ip), vehicle: Klucel (hydroxypropylcellulose) (HPC) 103 % of control | endpoint: mean survival time, dose: 200.0 mg/kg/injection, schedule: Q01DX009 (ip), vehicle: Klucel (hydroxypropylcellulose) (HPC) 101 % of control

C=CCC1(C)C(=O)CCC2=C1CCc1c(OC)cccc12 (stereo not drawn)
inactive: [10] 90 % of control | [11] 90 % of control | [12] 92 % of control

CCOC(=O)CN(C=O)C1c2ccccc2-c2ccccc21
inactive: [7] 99 % of control | [8] 92 % of control | [9] 97 % of control
